Patent US9440969B2, “Compounds and methods for kinase modulation, and indications therefor” (PLEXXIKON INC., priority 2009, dated 2016)

Key:
[1] = system: COLO205 colon adenocarcinoma (B-Raf V600E mutation); assay: COLO205 cell growth inhibition (ATPlite luminescence); type: cell-based; details: Homo sapiens, COLO 205, 72 h, COLO205 cells, incubated 3 days with compound
Method in brief: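 Cells seeded at 6×10^4 cells/mL in line-specific medium with 10% FBS, held overnight at 37°C, then given an 8-point 1:3 compound titration (top 10 μM final) for 3 days at 37°C, 5% CO2. ATP content read by ATPlite luminescence as a cell-number proxy; IC50 fitted from luminescence versus concentration.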

[2] = Relative solubility by turbidity in aqueous buffers (pH 1.5, 4.5, 6.8, 7.4); type: physicochemical; details: for turbidity threshold (L, M, H) 1.4: pH 1.5 buffer (SGF); for turbidity threshold (L, M, H) 4.5: pH 4.5 buffer (SIF); for turbidity threshold (L, M, H) 6.8: pH 6.8 buffer (SIF); for turbidity threshold (L, M, H) 7.4: pH 7.4 buffer (HEPES)
Method in brief: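 2-fold DMSO dilution series from 25 mM stocks were added to SGF (0.5M NaCl, pH 1.5), SIF (0.05M NaH2PO4, pH 4.5/6.8) or HEPES (10 mM, 150 mM NaCl, pH 7.4). Absorbance at 490, 535 and 650 nm; value is the concentration crossing OD 0.01, averaged over wavelengths. Low <31.3 μM, moderate 31.3–250 μM, high >250 μM.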

[3] = system: A375 melanoma (B-Raf V600E mutation); assay: A375 cell growth inhibition (ATPlite luminescence); type: cell-based; details: Homo sapiens, A-375, 72 h, A375 cells, incubated 3 days with compound
Experimental: Compounds are assessed in a variety of cell based assays. For example human cell lines with B-Raf V600E mutation (A375 melanoma, SKMEL3 melanoma, and COLO205 colon adenocarcinoma), as well as tumorigenic cell lines with wild-type B-RAF (SW620 colon adenocarcinoma) or with Ras mutations (SKMEL2 melanoma and IPC298 melanoma). Similar assays may be used to assess additional tumorigenic cell lines with Ras mutations, including, but not limited to, M202, M207, M243, M244, M296, S117, HCT116, HCT15, DLD1, MiaPaCa, A549, NCI-H23, NCI-H460, HOP62, MDA-MB231, Hs-578T, HL60, MOLT-4, and CCRF-CEM.
On day 1, cells are counted, then centrifuged in a conical tube for 5 minutes at 1000 rpm. The supernatant is removed and cells are re-suspended as follows: • SW620 (ATCC catalog #CCL-27): resuspend in Leibovitz's L-15 medium, 2 mM L-glutamine, 10% fetal bovine serum to 6×10^4 cells/mL. • A375 (ATCC catalog #CRL-1619): resuspend in Dulbecco's modified Eagle's medium, 4 mM L-glutamine, 4.5 g/L D-glucose, 10% fetal bovine serum to 6×10^4 cells/mL. • COLO205 (ATCC catalog #CCL-222): resuspend in RPMI 1640, 2 mM L-glutamine, 1.5 g/L sodium bicarbonate, 4.5 g/L D-glucose, 10 mM HEPES, 1.0 mM sodium pyruvate, 10% fetal bovine serum to 6×10^4 cells/mL. • SKMEL2 (ATCC catalog #HTB-68): resuspend in Minimum Eagle essential medium, 2 mM L-glutamine, 1.5 g/L sodium bicarbonate, 0.1 mM non-essential amino acids, 1.0 mM sodium pyruvate, 10% fetal bovine serum to 6×10^4 cells/mL. • SKMEL3 (ATCC catalog #HTB-69): resuspend in McCoy's 5A medium, 1.5 mM L-glutamine, 15% fetal bovine serum to 6×10^4 cells/mL. • IPC298 (DSMZ catalog #ACC 251): resuspend in RPMI 1640, 2 mM L-glutamine, 10% fetal bovine serum to 6×10^4 cells/mL.
The cells are plated, 50 μL in each well of a 96-well dish (Corning 3610) and incubated at 37° C. in 5% CO2 overnight, cells plated to a final concentration of cells as follows:
On day 2, compound at a maximum concentration of 5 mM is serially diluted 1:3 (e.g. 10 μL with 30 μL dimethyl sulfoxide) for a total of 8 point titration with DMSO as a control. A 1 μL aliquot of each dilution point and control is added to 249 μL growth media and 50 μL is added to a well containing cells, providing 10 μM compound at the maximum concentration point. The cells are incubated for 3 days at 37° C. in 5% CO2.
On day 5, ATPlite 1 step Luminescence Assay System (Perkin Elmer #6016739) is brought to room temperature along with the cell cultures. ATPlite is added 25 μL to each well, shake for 2 minutes, and the cells are incubated at room temperature for 10 minutes, then luminescence is read on Safire reader. The measured luminescence correlates directly with cell number, such that the reading as a function of compound concentration is used to determine the IC50 value.
It is understood that the results of these assays may vary as assay conditions are varied. Inhibition levels determined under the conditions described herein represent a relative activity for the compounds tested under the specific conditions employed. The cell based assays are likely to show variability due to the complexity of the system and the sensitivity thereof to any changes in the assay conditions. […] Results for compounds that are tested and show substantially no inhibition below the highest tested concentration are represented as “-” in the tables below. In some instances, the compounds were not tested in all of the assays, or assay results were not valid, as indicated by NA in the tables below.

| IC50 [1] | IC50 [3] | SMILES | turbidity threshold (L, M, H) 1.4 [2] | turbidity threshold (L, M, H) 4.5 [2] | turbidity threshold (L, M, H) 6.8 [2] | turbidity threshold (L, M, H) 7.4 [2] |
| --- | --- | --- | --- | --- | --- | --- |
| < 1 µM | – | CCCS(=O)(=O)Nc1ccc(F)c(C(=O)c2c[nH]c3ncc(-c4ccc5[nH]cc(C)c5c4)cc23)c1F [P-0023, Propane-1-sulfonic acid {2,4-difluoro-3-[5-(3-methyl-1H-indol-5-yl)-1H-pyrrolo[2,3-b]pyridine-3-carbonyl]-phenyl}-amide] | – | – | – | – |
| – | – | Cc1ccc(-c2cnc3[nH]cc(C(=O)c4c(F)ccc(NS(=O)(=O)c5cc(F)ccc5F)c4F)c3c2)cn1 [P-1408, N-{2,4-Difluoro-3-[5-(6-methyl-pyridin-3-yl)-1H-pyrrolo[2,3-b]pyridine-3-carbonyl]-phenyl}-2,5-difluoro-benzenesulfonamide] | M (moderate solubility if the threshold concentration is 31.3 μM to 250 μM) | L (low solubility if the threshold concentration is <31.3 μM) | L (low solubility if the threshold concentration is <31.3 μM) | L (low solubility if the threshold concentration is <31.3 μM) |
| < 1 µM | – | CC(=O)N(c1ccc(F)c(C(=O)c2cn(C(C)=O)c3ncc(-c4ccc5c(cnn5C(C)=O)c4)cc23)c1F)S(=O)(=O)c1cc(F)ccc1F [P-0006, N-Acetyl-N-{3-[1-acetyl-5-(1-acetyl-1H-indazol-5-yl)-1H-pyrrolo[2,3-b]pyridine-3-carbonyl]-2,4-difluoro-phenyl}-2,5-difluoro-benzenesulfonamide] | – | – | – | – |
| < 1 µM | – | O=C(c1c(F)ccc(NS(=O)(=O)c2cc(F)ccc2F)c1F)c1c[nH]c2ncc(-c3ccc4[nH]ncc4c3)cc12 [P-0002, N-{2,4-Difluoro-3-[5-(1H-indazol-5-yl)-1H-pyrrolo[2,3-b]pyridine-3-carbonyl]-phenyl}-2,5-difluoro-benzenesulfonamide] | – | – | – | – |
| < 1 µM | – | CC(=O)n1ncc2cc(-c3cnc4[nH]cc(C(=O)c5c(F)ccc(NS(=O)(=O)c6cc(F)ccc6F)c5F)c4c3)ccc21 [P-0005, N-{3-[5-(1-Acetyl-1H-indazol-5-yl)-1H-pyrrolo[2,3-b]pyridine-3-carbonyl]-2,4-difluoro-phenyl}-2,5-difluoro-benzenesulfonamide] | – | – | – | – |
| < 1 µM | > 1 µM | CCCS(=O)(=O)Nc1ccc(F)c(C(=O)c2c[nH]c3ncc(-c4ccc5c(cnn5C(C)=O)c4)cc23)c1F [P-0007, propane-1-sulfonic acid {3-[5-(1-acetyl-1H-indazol-5-yl)-1H-pyrrolo[2,3-b]pyridine-3-carbonyl]-2,4-difluoro-phenyl}-amide] | – | – | – | – |
| – | – | Cc1ncc(-c2cnc3[nH]cc(C(=O)c4c(F)ccc(NS(=O)(=O)c5cc(F)ccc5F)c4F)c3c2)cn1 [P-1503, N-{2,4-Difluoro-3-[5-(2-methyl-pyrimidin-5-yl)-1H-pyrrolo[2,3-b]pyridine-3-carbonyl]-phenyl}-2,5-difluoro-benzenesulfonamide] | L (low solubility if the threshold concentration is <31.3 μM) | L (low solubility if the threshold concentration is <31.3 μM) | L (low solubility if the threshold concentration is <31.3 μM) | M (moderate solubility if the threshold concentration is 31.3 μM to 250 μM) |
| < 1 µM | – | CCCS(=O)(=O)Nc1ccc(F)c(C(=O)c2c[nH]c3ncc(-c4ccc5c(cnn5S(C)(=O)=O)c4)cc23)c1F [P-0016, propane-1-sulfonic acid {2,4-difluoro-3-[5-(1-methanesulfonyl-1H-indazol-5-yl)-1H-pyrrolo[2,3-b]pyridine-3-carbonyl]-phenyl}-amide] | – | – | – | – |
| > 1 µM | – | O=C(c1c(F)ccc(NS(=O)(=O)c2ccc(C(F)(F)F)cc2)c1F)c1c[nH]c2ncc(-c3cnn(C4CCNCC4)c3)cc12 [P-1004, N-{2,4-Difluoro-3-[5-(1-piperidin-4-yl-1H-pyrazol-4-yl)-1H-pyrrolo[2,3-b]pyridine-3-carbonyl]-phenyl}-4-trifluoromethyl-benzenesulfonamide] | L (low solubility if the threshold concentration is <31.3 μM) | L (low solubility if the threshold concentration is <31.3 μM) | L (low solubility if the threshold concentration is <31.3 μM) | L (low solubility if the threshold concentration is <31.3 μM) |
| < 1 µM | < 1 µM | CNC(=O)n1ncc2cc(-c3cnc4[nH]cc(C(=O)c5c(F)ccc(NS(=O)(=O)c6cc(F)ccc6F)c5F)c4c3)ccc21 [P-0003, 5-{3-[3-(2,5-Difluoro-benzenesulfonylamino)-2,6-difluoro-benzoyl]-1H-pyrrolo[2,3-b]pyridin-5-yl}-indazole-1-carboxylic acid methylamide] | – | – | – | – |
| < 1 µM | – | CCCS(=O)(=O)Nc1ccc(F)c(C(=O)c2c[nH]c3ncc(-c4ccc5ncsc5c4)cc23)c1F [P-0020, Propane-1-sulfonic acid [3-(5-benzothiazol-6-yl-1H-pyrrolo[2,3-b]pyridine-3-carbonyl)-2,4-difluoro-phenyl]-amide] | – | – | – | – |
| < 1 µM | < 1 µM | CCCS(=O)(=O)Nc1ccc(F)c(C(=O)c2c[nH]c3ncc(-c4ccc5[nH]ncc5c4)cc23)c1F [P-0001, propane-1-sulfonic acid {2,4-difluoro-3-[5-(1H-indazol-5-yl)-1H-pyrrolo[2,3-b]pyridine-3-carbonyl]-phenyl}-amide] | – | – | – | – |
| < 1 µM | – | CCCS(=O)(=O)Nc1ccc(F)c(C(=O)c2c[nH]c3ncc(-c4cnn(C5CCNCC5)c4)cc23)c1F [P-1002, Propane-1-sulfonic acid {2,4-difluoro-3-[5-(1-piperidin-4-yl-1H-pyrazol-4-yl)-1H-pyrrolo[2,3-b]pyridine-3-carbonyl]-phenyl}-amide] | M (moderate solubility if the threshold concentration is 31.3 μM to 250 μM) | M (moderate solubility if the threshold concentration is 31.3 μM to 250 μM) | L (low solubility if the threshold concentration is <31.3 μM) | M (moderate solubility if the threshold concentration is 31.3 μM to 250 μM) |
| < 1 µM | – | CC(=O)n1cc(C(=O)c2c(F)ccc(NS(=O)(=O)c3cc(F)ccc3F)c2F)c2cc(-c3ccc4c(cnn4C(C)=O)c3)cnc21 [P-0004, N-{3-[1-Acetyl-5-(1-acetyl-1H-indazol-5-yl)-1H-pyrrolo[2,3-b]pyridine-3-carbonyl]-2,4-difluoro-phenyl}-2,5-difluoro-benzenesulfonamide] | – | – | – | – |
| < 1 µM | – | CCCS(=O)(=O)Nc1ccc(F)c(C(=O)c2c[nH]c3ncc(-c4ccc5cncnc5c4)cc23)c1F [P-0025, Propane-1-sulfonic acid [2,4-difluoro-3-(5-quinazolin-7-yl-1H-pyrrolo[2,3-b]pyridine-3-carbonyl)-phenyl]-amide] | – | – | – | – |
